Measurements taken from ChEMBL document CHEMBL1146000, “Synthesis, in vitro evaluation, and intraocular pressure effects of water-soluble prodrugs of endocannabinoid noladin ether” (J Med Chem, 2003).

Assays:
[1] = Aqueous solubility of the phosphate in TRIS buffers at pH 7.4 at 37 C was determined; assay type: physicochemical; conditions: TRIS buffer
alkaline phosphatase = assay: Half-life in alkaline phosphatase solution at 37 C (n = 2); assay type: ADME
[2] = Half-life in 10% liver homogenate at 37 C (n = 3); assay type: ADME, tissue-based
[3] = Distribution coefficients at 25 C in a 1-octanol-TRIS buffer; assay type: physicochemical
[4] = Half-life in 4% cornea homogenate at 37 C (n = 3); assay type: ADME, tissue-based
[5] = Chemical stability in phosphate buffers at pH 7.4 at 37 C was determined; assay type: physicochemical; conditions: phosphate buffer
[6] = Chemical stability in TRIS buffers at pH 7.4 at 37 C was determined; assay type: physicochemical; conditions: TRIS buffer

| Compound | solubility [1] [µg/mL] | half-life (alkaline phosphatase) [min] | half-life [2] [min] | logD [3] | half-life [4] [min] | half-life [5] [days] | half-life [6] [days] |
| --- | --- | --- | --- | --- | --- | --- | --- |
| CCCCC/C=C\C/C=C\C/C=C\C/C=C\CCCCOC(COP(=O)(O)O)COP(=O)(O)O | > 5000 | 1.6 | 6.4 | 0.65 | 17.2 | – | – |
| CCCCC/C=C\C/C=C\C/C=C\C/C=C\CCCCOC(CO)COP(=O)(O)O (stereo not drawn) | > 5000 | 4.6 | 7.1 | 1.98 | 18.1 | 17.9 | 9 |
| CCCCC/C=C\C/C=C\C/C=C\C/C=C\CCCCOC(CO)CO | < 0.1 | – | – | – | – | – | – |
